Measured values from PubChem BioAssay AID2060616 (Molecular Pharmacology Branch, DTP, NCI, 2025).

Tested on: 377384-186-R-J1-PDC complex spheroid viability
Experiment: Anticancer human tumor 377384-186-R-J1-PDC patient-derived pancreatic carcinoma cell line growth inhibition [CLK]
Details: for IC50: curve of first compound; for viability, T/C: stronger effect = lower value
In short: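 Patient-derived tumor cells grown as complex spheroids with HUVEC endothelial cells and mesenchymal stem cells, treated with drug combinations. Concentrations descend in half-log steps from near clinical Cmax, or from 10 microM if Cmax unknown.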

[1] = second compound 0.0316 µM, first compound 0.0316 µM
[2] = second compound 0.0316 µM, first compound 0.1 µM
[3] = second compound 0.0316 µM, first compound 0.316 µM
[4] = second compound 0.0316 µM, first compound 1 µM
[5] = second compound 0.0316 µM, first compound 3.16 µM
[6] = second compound 0.0316 µM, first compound 10 µM
[7] = second compound 0.1 µM, first compound 0.0316 µM
[8] = second compound 0.1 µM, first compound 0.1 µM
[9] = second compound 0.1 µM, first compound 0.316 µM
[10] = second compound 0.1 µM, first compound 1 µM
[11] = second compound 0.1 µM, first compound 3.16 µM
[12] = second compound 0.1 µM, first compound 10 µM
[13] = second compound 0.316 µM, first compound 0.0316 µM
[14] = second compound 0.316 µM, first compound 0.1 µM
[15] = second compound 0.316 µM, first compound 0.316 µM
[16] = second compound 0.316 µM, first compound 1 µM
[17] = second compound 0.316 µM, first compound 3.16 µM
[18] = second compound 0.316 µM, first compound 10 µM
[19] = second compound 1 µM, first compound 0.0316 µM
[20] = second compound 1 µM, first compound 0.1 µM
[21] = second compound 1 µM, first compound 0.316 µM
[22] = second compound 1 µM, first compound 1 µM
[23] = second compound 1 µM, first compound 3.16 µM
[24] = second compound 1 µM, first compound 10 µM
[25] = second compound 3.16 µM, first compound 0.0316 µM
[26] = second compound 3.16 µM, first compound 0.1 µM
[27] = second compound 3.16 µM, first compound 0.316 µM
[28] = second compound 3.16 µM, first compound 1 µM
[29] = second compound 3.16 µM, first compound 3.16 µM
[30] = second compound 3.16 µM, first compound 10 µM
[31] = second compound 10 µM, first compound 0.0316 µM
[32] = second compound 10 µM, first compound 0.1 µM
[33] = second compound 10 µM, first compound 0.316 µM
[34] = second compound 10 µM, first compound 1 µM
[35] = second compound 10 µM, first compound 3.16 µM
[36] = second compound 10 µM, first compound 10 µM
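Also: spheroids exposed to agents for 7 days before reading.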
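For viability, T/C in this document: luminescence signal used as a stand-in for viable cells.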

SMILES: CC(C)CC(NC(=O)C(Cc1ccccc1)NC(=O)c1cnccn1)B(O)O (stereo unspecified) + CNC(=O)c1ccc(Nc2nc(OC3CCCC3)c3c(-c4ccc5nc(C)oc5c4)c[nH]c3n2)c(OC)c1
- IC50 (second compound 0.0316 µM): 1.41 nM
- IC50 (second compound 0.1 µM): < 0.949 nM
- IC50 (second compound 0.316 µM): < 0.949 nM
- IC50 (second compound 1 µM): < 0.949 nM
- IC50 (second compound 3.16 µM): < 0.949 nM
- IC50 (second compound 10 µM): < 0.949 nM
- viability, T/C (second compound 0.0316 µM, first compound 0.000949 µM): 75.2%
- viability, T/C (second compound 0.0316 µM, first compound 0.003 µM): 2.16%
- viability, T/C (second compound 0.0316 µM, first compound 0.00949 µM): 0.37%
- viability, T/C (second compound 0.0316 µM, first compound 0.03 µM): 0.17%
- viability, T/C (second compound 0.0316 µM, first compound 0.0949 µM): 0.17%
- viability, T/C (second compound 0.0316 µM, first compound 0.3 µM): 0.13%
- viability, T/C (second compound 0.1 µM, first compound 0.000949 µM): 44%
- viability, T/C (second compound 0.1 µM, first compound 0.003 µM): 1.4%
- viability, T/C (second compound 0.1 µM, first compound 0.00949 µM): 0.25%
- viability, T/C (second compound 0.1 µM, first compound 0.03 µM): 0.15%
- viability, T/C (second compound 0.1 µM, first compound 0.0949 µM): 0.13%
- viability, T/C (second compound 0.1 µM, first compound 0.3 µM): 0.15%
- viability, T/C (second compound 0.316 µM, first compound 0.000949 µM): 21.4%
- viability, T/C (second compound 0.316 µM, first compound 0.003 µM): 0.99%
- viability, T/C (second compound 0.316 µM, first compound 0.00949 µM): 0.18%
- viability, T/C (second compound 0.316 µM, first compound 0.03 µM): 0.14%
- viability, T/C (second compound 0.316 µM, first compound 0.0949 µM): 0.15%
- viability, T/C (second compound 0.316 µM, first compound 0.3 µM): 1.69%
- viability, T/C (second compound 1 µM, first compound 0.000949 µM): 17.2%
- viability, T/C (second compound 1 µM, first compound 0.003 µM): 0.98%
- viability, T/C (second compound 1 µM, first compound 0.00949 µM): 0.28%
- viability, T/C (second compound 1 µM, first compound 0.03 µM): 0.24%
- viability, T/C (second compound 1 µM, first compound 0.0949 µM): 0.51%
- viability, T/C (second compound 1 µM, first compound 0.3 µM): 0.35%
- viability, T/C (second compound 3.16 µM, first compound 0.000949 µM): 14.8%
- viability, T/C (second compound 3.16 µM, first compound 0.003 µM): 0.96%
- viability, T/C (second compound 3.16 µM, first compound 0.00949 µM): 0.36%
- viability, T/C (second compound 3.16 µM, first compound 0.03 µM): 0.23%
- viability, T/C (second compound 3.16 µM, first compound 0.0949 µM): 0.31%
- viability, T/C (second compound 3.16 µM, first compound 0.3 µM): 0.21%
- viability, T/C (second compound 10 µM, first compound 0.000949 µM): 14.3%
- viability, T/C (second compound 10 µM, first compound 0.003 µM): 0.81%
- viability, T/C (second compound 10 µM, first compound 0.00949 µM): 0.71%
- viability, T/C (second compound 10 µM, first compound 0.03 µM): 0.24%
- viability, T/C (second compound 10 µM, first compound 0.0949 µM): 0.62%
- viability, T/C (second compound 10 µM, first compound 0.3 µM): 0.3%

SMILES: CC1(C)CCC(CN2CCN(c3ccc(C(=O)NS(=O)(=O)c4ccc(NCC5CCOCC5)c([N+](=O)[O-])c4)c(Oc4cnc5[nH]ccc5c4)c3)CC2)=C(c2ccc(Cl)cc2)C1 + CNC(=O)c1ccc(Nc2nc(OC3CCCC3)c3c(-c4ccc5nc(C)oc5c4)c[nH]c3n2)c(OC)c1
- IC50 (second compound 0.0316 µM): > 10000 nM
- IC50 (second compound 0.1 µM): > 10000 nM
- IC50 (second compound 0.316 µM): < 31.6 nM
- IC50 (second compound 1 µM): < 31.6 nM
- IC50 (second compound 3.16 µM): < 31.6 nM
- IC50 (second compound 10 µM): < 31.6 nM
- viability, T/C [1]: 105%
- viability, T/C [2]: 93.2%
- viability, T/C [3]: 96.9%
- viability, T/C [4]: 109%
- viability, T/C [5]: 82.1%
- viability, T/C [6]: 104%
- viability, T/C [7]: 59.8%
- viability, T/C [8]: 57.4%
- viability, T/C [9]: 49.3%
- viability, T/C [10]: 56.6%
- viability, T/C [11]: 36.4%
- viability, T/C [12]: 59.8%
- viability, T/C [13]: 20.4%
- viability, T/C [14]: 21.6%
- viability, T/C [15]: 19.7%
- viability, T/C [16]: 19%
- viability, T/C [17]: 17.6%
- viability, T/C [18]: 21.1%
- viability, T/C [19]: 23.3%
- viability, T/C [20]: 22.5%
- viability, T/C [21]: 18.2%
- viability, T/C [22]: 19.1%
- viability, T/C [23]: 19.3%
- viability, T/C [24]: 21.6%
- viability, T/C [25]: 20.2%
- viability, T/C [26]: 20.7%
- viability, T/C [27]: 20%
- viability, T/C [28]: 18.8%
- viability, T/C [29]: 21.9%
- viability, T/C [30]: 20.9%
- viability, T/C [31]: 20.2%
- viability, T/C [32]: 21.6%
- viability, T/C [33]: 21.2%
- viability, T/C [34]: 20.1%
- viability, T/C [35]: 19.2%
- viability, T/C [36]: 21.3%

SMILES: CC1COCCN1c1cc(C2(S(C)(=N)=O)CC2)nc(-c2ccnc3[nH]ccc23)n1 (stereo unspecified) + CNC(=O)c1ccc(Nc2nc(OC3CCCC3)c3c(-c4ccc5nc(C)oc5c4)c[nH]c3n2)c(OC)c1
- IC50 (second compound 0.0316 µM): 2600 nM
- IC50 (second compound 0.1 µM): 232 nM
- IC50 (second compound 0.316 µM): < 31.6 nM
- IC50 (second compound 1 µM): < 31.6 nM
- IC50 (second compound 3.16 µM): < 31.6 nM
- IC50 (second compound 10 µM): < 31.6 nM
- viability, T/C [1]: 105%
- viability, T/C [2]: 110%
- viability, T/C [3]: 106%
- viability, T/C [4]: 83.5%
- viability, T/C [5]: 43.5%
- viability, T/C [6]: 17.4%
- viability, T/C [7]: 62.4%
- viability, T/C [8]: 56.8%
- viability, T/C [9]: 52%
- viability, T/C [10]: 41.1%
- viability, T/C [11]: 23.7%
- viability, T/C [12]: 19.9%
- viability, T/C [13]: 21.3%
- viability, T/C [14]: 23.4%
- viability, T/C [15]: 18.6%
- viability, T/C [16]: 16.9%
- viability, T/C [17]: 13.8%
- viability, T/C [18]: 9.16%
- viability, T/C [19]: 20.6%
- viability, T/C [20]: 20.9%
- viability, T/C [21]: 22.3%
- viability, T/C [22]: 17.9%
- viability, T/C [23]: 12%
- viability, T/C [24]: 7.93%
- viability, T/C [25]: 20.2%
- viability, T/C [26]: 21.2%
- viability, T/C [27]: 20.6%
- viability, T/C [28]: 18.9%
- viability, T/C [29]: 14.1%
- viability, T/C [30]: 9.68%
- viability, T/C [31]: 20.4%
- viability, T/C [32]: 19%
- viability, T/C [33]: 21.5%
- viability, T/C [34]: 19.4%
- viability, T/C [35]: 12.4%
- viability, T/C [36]: 9.21%
